In ChEMBL document CHEMBL1142078, “Detection of a new SHV-type extended-spectrum beta-lactamase, SHV-31, in a Klebsiella pneumoniae strain causing a large nosocomial outbreak in The Netherlands” (2007):
Values after ≈ are worked out from the molar mass of the structure shown.

Key:
Format in all cases: functional
[1] = tested on: Klebsiella pneumoniae; assay: Antimicrobial activity against Klebsiella pneumoniae KPN15-NL
[2] = tested on: Escherichia coli; assay: Antimicrobial activity against Escherichia coli XL10/pSHV-31
[3] = tested on: Escherichia coli; assay: Antimicrobial activity against Escherichia coli XL10/vector

SMILES | MIC [1] | MIC [2] | MIC [3]
CC1(C)S[C@@H]2[C@H](NC(=O)[C@H](N)c3ccccc3)C(=O)N2[C@H]1C(=O)O [AMPICILLIN] | > 128 µg/mL | > 128 µg/mL | –
C[C@@H](O)[C@H]1C(=O)N2C(C(=O)O)=C(SCCNC=N)C[C@H]12 [IMIPENEM ANHYDROUS] | ≤ 0.06 µg/mL | ≤ 0.06 µg/mL | –
C[C@H]1[C@H](NC(=O)/C(=N\OC(C)(C)C(=O)O)c2csc(N)n2)C(=O)N1S(=O)(=O)O [AZTREONAM] | > 128 µg/mL | > 128 µg/mL | 0.12 µg/mL (≈ 0.276 µM)
CCN1CCN(C(=O)N[C@@H](C(=O)N[C@@H]2C(=O)N3[C@@H]2SC(C)(C)[C@@H]3C(=O)O)c2ccccc2)C(=O)C1=O [PIPERACILLIN] | > 128 µg/mL | 64 µg/mL (≈ 124 µM) | 1 µg/mL (≈ 1.93 µM)
CC1(C)S[C@@H]2[C@H](NC(=O)[C@H](N)c3ccc(O)cc3)C(=O)N2[C@H]1C(=O)O [AMOXICILLIN] | > 128 µg/mL | > 128 µg/mL | 16 µg/mL (≈ 43.8 µM)
CO/N=C(\C(=O)N[C@@H]1C(=O)N2C(C(=O)O)=C(COC(C)=O)CS[C@H]12)c1csc(N)n1 [CEFOTAXIME] | 8 µg/mL (≈ 17.6 µM) | 4 µg/mL (≈ 8.78 µM) | ≤ 0.06 µg/mL
CC(C)(O/N=C(\C(=O)N[C@@H]1C(=O)N2C(C(=O)[O-])=C(C[n+]3ccccc3)CS[C@H]12)c1csc(N)n1)C(=O)O [CEFTAZIDIME] | 128 µg/mL (≈ 234 µM) | 32 µg/mL (≈ 58.5 µM) | 0.12 µg/mL (≈ 0.22 µM)
CO[C@@]1(NC(=O)Cc2cccs2)C(=O)N2C(C(=O)O)=C(COC(N)=O)CS[C@@H]21 [CEFOXITIN] | 16 µg/mL (≈ 37.4 µM) | 1 µg/mL (≈ 2.34 µM) | 1 µg/mL (≈ 2.34 µM)
C[C@@H](O)[C@H]1C(=O)N2C(C(=O)O)=C(S[C@@H]3CN[C@H](C(=O)Nc4cccc(C(=O)O)c4)C3)[C@H](C)[C@H]12 [ERTAPENEM] | ≤ 0.06 µg/mL | ≤ 0.06 µg/mL | –
CO/N=C(\C(=O)N[C@@H]1C(=O)N2C(C(=O)[O-])=C(C[N+]3(C)CCCC3)CS[C@H]12)c1csc(N)n1 [CEFEPIME] | 1 µg/mL (≈ 2.08 µM) | 0.5 µg/mL (≈ 1.04 µM) | ≤ 0.06 µg/mL
